Laboratory results reported in publication PMC9727977, “Pharmacokinetics and pharmacodynamics of bioactive compounds in Penyanqing preparation in THP-1 inflammatory cells induced by Lipopolysaccharide” (BMC Complementary Medicine and Therapies, 2022).
Like-named read-outs stand apart in the source and are kept apart here.

Assays:
[1] = Pharmacokinetics of six compounds in rat plasma after oral administration of PYQ (HPLC-MS/MS); format: in vivo, Sprague–Dawley rats; conditions: for AUC(0-∞) / AUC(0-t) / AUC(0-inf): non-compartmental; for CL/F: n = 6, read-out: CLz/F (converted); for Vd/F: n = 6, read-out: Vz/F; for MRT: read-out: mean residence time (MRT)
Procedure: Animal experiments referred to our previous manuscript. Female Sprague–Dawley rats (n = 10), weighing 200 ± 20 g, were purchased from the Experimental Animal Center of Southern Medical University (Guangzhou, China). These rats were kept adaptively for one week before the experiment, with a temperature of 23 ± 2 ℃, humidity of 40 ± 5%, 12 h light/dark cycle, and random-fed with water and food available. The rats were fasted overnight before administration.
In our previous study, three different doses (5, 10, and 20 mL/kg/day) of PYQ were used to explore the pharmacodynamic effects of it. According to the clinical dose, the PYQ was orally administered to rats at a dose of 8 mL/kg in this experiment. The plasma of 500 µL was obtained via the retinal venous plexus at 0.083, 0.25, 0.5, 0.75, 1, 2, 4, 8, 12 and 24 h after gavage administration. Then all samples were centrifuged at 4 ℃ for 5 min at 8,000 rpm, and were stored at -80 ℃ in refrigerator until further analysis.
For the pharmacokinetic study of PRO, PE, AST, FE, and CH, 100 µL plasma sample was mixed with 10 µL internal standard (IS, 2 µg/mL naringin), and 700 µL methanol was added for protein sedimentation. The mixture was vortexed for 6 min and centrifuged at 13, 000 rpm for 15 min at 4 ℃. Next, the supernatant was dried in a vacuum drying oven and vortexed with 100 µL of 50% methanol for 6 min, and then the mixture was centrifuged at 13, 000 rpm for 30 min at 4 ℃, and the supernatant was filtered by 0.22 µM filter membrane for HPLC–MS/MS analysis.
For the pharmacokinetic study of SAB, 100 µL plasma was mixed with 10 µL IS (2 µg/mL naringin) and then acidified by mixing with 25 µL of 20% hydrochloric acid. After addition of 1 mL of ethyl acetate, the mixture was vortexed for 6 min and centrifuged at 13,000 rpm for 15 min. The organic layer was transferred to an Eppendorf tube and dried in a vacuum drying oven. The residue was dissolved in 100 µL methanol. After centrifugation at 13,000 rpm for 30 min, the supernatant was filtered by 0.22 µM filter membrane for HPLC–MS/MS analysis.
In this study, the negative ESI multiple reaction monitoring (MRM) mode of AB Sciex API-4000 LC–MS/MS Systems was used to measure SAB, PRO, PE, AST, FE, and CH in rat plasma, respectively. The following setups of the analyzers were used: the temperatures were all 500 ℃; GS1, 55 psi; GS2, 55 psi; curtain gas, 10 psi.
For the chromatographic analysis of PRO, PE, AST, FE, and CH, the chromatographic column used was Agilent Poroshell 120 EC-C18 (100 mm × 3.0 mm, 2.7 µm), and the column temperature was maintained at 25 ℃. The mobile phase was consisted of A (methanol) and B (0.2% aqueous formic acid), and the flow rate was 0.4 mL/min. The gradient elution was carried out as follows: 10% A at 0 ~ 1 min, 10% A-95% A at 1 ~ 2 min, 95% A at 2 ~ 5 min, 95% A-10% A at 5 ~ 5.1 min, 10% A at 5.1 ~ 6 min. 5 µL sample was injected into the system for analysis.
For the chromatographic analysis of SAB, the chromatographic column used was ZORBAX SB-C18 (100 mm × 2.1 mm, 3.5 µm), and the column temperature was maintained at 25 ℃. The mobile phase was consisted of A (methanol) and B (0.2% aqueous formic acid), and the flow rate was 0.4 mL/min. The gradient elution was carried out as follows: 30% A at 0 ~ 0.5 min, 30% A-90% A at 0.5 ~ 1 min, 90% A at 1 ~ 4.5 min, 90% A-30% A at 4.5 ~ 4.6 min, 30% A at 4.6 ~ 6 min. 5 µL sample was injected into the system for analysis.
The pharmacokinetic parameters were calculated by non-compartmental model of the DAS 2.0 software package. The data were presented as mean ± standard deviation (SD). Statistical calculations were performed using SPSS statistical software, and a value of p < 0.05 was denoted statistically significant difference.

[2] = Stability of the analytes in rat plasma QC samples under different storage conditions; format: in vitro ADME
Procedure: QC samples were […], 50, 125, 400 ng/mL for FE, 20, 100, 400 ng/mL for PRO, 100, 200, 500 ng/mL for CH, 100, 200, 500 ng/mL for PE, 200, 400, 800 ng/mL for SAB respectively. All the stock solutions, working solutions and QC samples were stored at 4 ℃ until use. […] The stability of all QC samples was determined by the freshly calibration curve.

[3] = PYQ orally 8 mL/kg, mean ± SD, n = 6
[4] = female, Sprague-Dawley, po, PYQ orally 8 mL/kg, mean ± SD, n = 6
[5] = female, Sprague-Dawley, po, PYQ orally 8 mL/kg, mean ± SD
[6] = female, Sprague-Dawley, po, PYQ orally 8 mL/kg, mean ± SD, n = 6, read-out: AUC(0-t)
[7] = female, Sprague-Dawley, po, after PYQ administration
[8] = high QC level, nominal ng/mL: AST 500, FE 400, PRO 400, CH 500, PE 500, SAB 800, n = 6
[9] = low QC level, nominal ng/mL: AST 100, FE 50, PRO 20, CH 100, PE 100, SAB 200, n = 6
[10] = middle QC level, nominal ng/mL: AST 200, FE 125, PRO 100, CH 200, PE 200, SAB 400, n = 6
[11] = female, Sprague-Dawley, po, PYQ orally 8 mL/kg, mean ± SD, n = 6, read-out: Cmax
[12] = female, Sprague-Dawley, po, PYQ orally 8 mL/kg, mean ± SD, n = 6, read-out: tmax

Molecule	Cmax [1, 3]	AUC(0-∞) [1, 3]	half-life [1, 4]	CL/F [1, 5]	Vd/F [1, 5]	AUC(0-t) [1, 6]	MRT [1, 7]	In 56 ℃ for 1 h measured value [2, 8]	Room temperature 24 h measured value [2, 8]	Three freeze-thaw cycles measured value [2, 8]	In 56 ℃ for 1 h measured value [2, 9]	Room temperature 24 h measured value [2, 9]	Three freeze-thaw cycles measured value [2, 9]	In 56 ℃ for 1 h measured value [2, 10]	Room temperature 24 h measured value [2, 10]	Three freeze-thaw cycles measured value [2, 10]	t1/2 [1, 3]	Cmax [1, 11]	Tmax [1, 12]	AUC(0-inf) [1, 4]	also measured
O=C(/C=C/c1ccc(O)c(O)c1)O[C@@H]1C[C@](O)(C(=O)O)C[C@@H](O)[C@H]1O [CH, chlorogenic acid]	1370 ± 60 ng/mL	940 ± 90 ng·h/mL	1.86 ± 0.21 h	356 mL/min/kg	57.2 ± 7.48 L/kg	920 ± 60 ng·h/mL	≤ 3 h	489.60 ± 8.91	499.00 ± 6.02	485.90 ± 9.73	97.22 ± 3.31	99.91 ± 2.94	98.55 ± 2.93	195.56 ± 7.88	200.03 ± 9.56	191.77 ± 8.91					
C[C@@]12C[C@@]3(O)O[C@@H](O1)[C@]1(COC(=O)c4ccccc4)[C@H]3C[C@@]12O[C@@H]1O[C@H](CO)[C@@H](O)[C@H](O)[C@H]1O [PE, paeoniflorin]				153 mL/min/kg	31.3 ± 4.08 L/kg	2210 ± 310 ng·h/mL	≤ 3 h	495.87 ± 6.50	499.23 ± 2.58	492.85 ± 7.60	95.32 ± 1.06	99.44 ± 2.43	99.68 ± 2.83	196.25 ± 4.08	199.64 ± 2.59	197.55 ± 3.60	2.37 ± 0.20 h	2040 ± 590 ng/mL	0.25 h	2220 ± 310 ng·h/mL	
salvianolic acid B [SAB]	1590 ± 330 ng/mL	3700 ± 460 ng·h/mL						791.11 ± 5.98	792.27 ± 3.94	790.71 ± 3.52	196.22 ± 3.40	208.88 ± 8.46	194.10 ± 8.56	395.20 ± 10.70	391.06 ± 6.16	388.99 ± 6.75	7.60 ± 3.34 h				CLz/F [1, 3]: 91.3 ± 11.3 mL/min/kg; Tmax [1, 3]: 0.29 ± 0.10 h; Vz/F [1, 3]: 59.83 ± 25.48 L/kg; AUC(0-t) [1, 3]: 3400 ± 450 ng·h/mL; mean residence time (MRT) ([1]; after PYQ administration): 5.67 ± 0.66 h
COc1cc(/C=C/C(=O)O)ccc1O [FE, ferulic acid]			0.9 ± 0.02 h	230 mL/min/kg	17.9 ± 3.28 L/kg	1430 ± 230 ng·h/mL	≤ 3 h	399.13 ± 3.26	403.59 ± 7.84	400.59 ± 6.95	48.33 ± 2.76	49.14 ± 2.35	49.41 ± 1.85	123.42 ± 1.76	122.72 ± 2.65	124.36 ± 2.46		1200 ± 150 ng/mL		1480 ± 240 ng·h/mL	Tmax [1, 3]: 0.25 ± 0 h
C[C@@H]1O[C@@H](O[C@H]2C(=O)c3c(O)cc(O)cc3O[C@@H]2c2ccc(O)c(O)c2)[C@H](O)[C@H](O)[C@H]1O [AST, astilbin]			3.42 ± 0.34 h	159 mL/min/kg	45.4 ± 6.31 L/kg	2080 ± 200 ng·h/mL	≤ 3 h	495.21 ± 8.43	498.07 ± 3.95	497.15 ± 6.61	98.46 ± 2.77	99.68 ± 2.31	97.89 ± 4.06	194.85 ± 6.53	199.01 ± 3.99	193.37 ± 7.61		2270 ± 350 ng/mL	0.25 h	2090 ± 200 ng·h/mL	
O=Cc1ccc(O)c(O)c1 [PRO, protocatechualdehyde]			0.93 ± 0.06 h	310 mL/min/kg	24.9 ± 1.96 L/kg	1050 ± 60 ng·h/mL	≤ 3 h	394.26 ± 8.01	398.27 ± 4.21	395.66 ± 7.14	19.88 ± 0.43	20.81 ± 0.85	20.62 ± 1.06	98.21 ± 2.33	100.34 ± 1.48	97.77 ± 2.49		1430 ± 220 ng/mL		1080 ± 70 ng·h/mL	Tmax ([1]; female, Sprague-Dawley, in vivo, po, PYQ orally 8 mL/kg, mean ± SD, n = 6, read-out: tmax): 0.25 h
